{"source": "patent US20120244553A1", "about": "“BIOMARKER OF ALLERGIC DISEASE AND USE OF THE SAME” (UNIVERSITY OF TOYAMA, priority 2007, published 2012)", "molecules": {"B1": {"name": "granzyme A: serine protease expressed in CD4+ T cells; intradermally injected into mice to induce scratching (protein, listed as Homo sapiens)", "chain": "MRNSYRFLASSLSVVVSLLLIPEDVCEKIIGGNEVTPHSRPYMVLLSLDRKTICAGALIAKDWVLTAAHCNLNKRSQVILGAHSITREEPTKQIMLVKKEFPYPCYDPATREGDLKLLQLTEKAKINKYVTILHLPKKGDDVKPGTMCQVAGWGRTHNSASWSDTLREVNITIIDRKVCNDRNHYNFNPVIGMNMVCAGSLRGGRDSCNGDSGSPLLCEGVFRGVTSFGLENKCGDPRGPGVYILLSKKHLNWIIMTIKGAV"}}, "key": {"[1]": {"test_system": "mosquito salivary gland extract-induced scratching behavior", "details": "mouse; cited from earlier work"}, "primary afferent": {"test_system": "primary afferent", "details": "sensitized mouse; cited from earlier work"}, "mice": {"test_system": "mice", "details": "animals such as mice; cited from earlier work"}, "[2]": {"test_system": "granzyme A-induced scratching behavior", "assay": "Suppression of scratching behavior induced by intradermal injection of granzyme A", "format": "in vivo, mouse", "details": "naltrexone injected 15 minutes before granzyme A", "experimental": "(§1) On the day before the experiment, the hair on the rostral back of each mouse was removed. On the day of the experiment, the mouse was left in an observation cage for 1 hour to familiarize the mouse with the environment. After the familiarization, granzyme A (0.1 to 100 μg/site) or ESGM (10 μg/50 μL) was intradermally injected to the rostral back of the mouse. The mouse was returned to the observation cage (13×9×30 cm) immediately after the administration, and the behavior with no observer present was filmed with an 8-mm video camera. A protease inhibitor in an amount of 0.05 mL per 10 g of body weight of the mouse was injected into the tail vein 30 seconds before the administration of ESGM. Naltrexone in an amount of 0.1 mL per 10 g of body weight of the mouse was intradermally injected 15 minutes before the administration of granzyme A. The behavior after the injection was observed by playing back the video. Scratching behavior was determined by counting the number of times there was scratching of the injection portion and nearly areas with the hind paws. A mouse usually scratches several times for about 1 second, and a series of this behavior was determined as one instance of scratching behavior."}, "normal mice": {"test_system": "normal mice", "assay": "Behavior experiment: scratching behavior after intradermal injection of granzyme A", "format": "in vivo, mouse", "experimental": "as §1"}}, "note": "Entries after “also recorded” stand apart in the source; their conditions may differ.", "data": [{"molecule": "CN1CCCC(n2nc(Cc3ccc(Cl)cc3)c3ccccc3c2=O)CC1", "note": "(centres unmarked) [azelastine]", "values": [{"measurement": "Effect on scratching behavior increased by repetitive injections of mosquito salivary gland extract", "setting": "[1]", "value": "is suppressed"}, {"measurement": "Effect on enhanced activity of primary afferent after mosquito salivary gland extract injection", "setting": "primary afferent", "value": "suppressed"}]}, {"molecule": "NCCc1c[nH]cn1", "note": "[histamine]", "values": [{"measurement": "Scratching behavior caused by histamine", "setting": "mice", "value": "does not cause scratching behavior"}]}, {"molecule": "O=C1CC[C@@]2(O)[C@H]3Cc4ccc(O)c5c4[C@@]2(CCN3CC2CC2)[C@H]1O5", "note": "[naltrexone]", "values": [{"measurement": "Effect on scratching behavior induced by intradermal injection of granzyme A", "setting": "[2]", "value": "suppressed"}]}, {"molecule": "CC(C)(C)c1ccc(C(O)CCCN2CCC(C(O)(c3ccccc3)c3ccccc3)CC2)cc1", "note": "(centres unmarked) [terfenadine]", "values": [{"measurement": "Effect on scratching behavior increased by repetitive injections of mosquito salivary gland extract", "setting": "[1]", "value": "is not suppressed"}, {"measurement": "Effect on enhanced activity of primary afferent after mosquito salivary gland extract injection", "setting": "primary afferent", "value": "not suppressed"}]}, {"molecule": "B1", "values": [{"measurement": "Dose giving peak scratching behavior", "setting": "normal mice; intradermal injection", "value": 10, "unit": "μg/site"}, {"measurement": "Scratching behavior induced by intradermal injection", "setting": "normal mice; intradermal injection to rostral back, 0.1 to 100 μg/site", "value": "an itching reaction occurred; also recorded: induced; also recorded: induction of scratching behavior"}]}]}
